Data published in patent publication US11952337B2, “Bioenergetically active esters for health and disease” (University of Kansas, priority 2018, dated 2024).
“Also recorded” adds a separate entry of the source.

Assays:
SH-SY5Y cells [1] = experiment: Respiration / oxygen consumption rate (OCR), Seahorse Extracellular Flux analyzer; type: cell-based, human; settings: for Effect on respiration (OCR), in words: SH-SY5Y cultured neuronal cells; for Increase of cellular respiration and/or glycolysis, near maximum possible levels: preliminary testing, FIGS. 2 and 3; for ATP-linked Respiration / Change in OCR post injection (1) / Maximum OCR / Post-Oligomycin (Leak Rate) OCR: average of three experiments
Method: (§1) In these experiments, oligomycin, FCCP, rotenone/antimycin, and 2-deoxyglucose were used to determine the proportion of oxygen that was consumed as part of the mitochondrial “leak” and “ATP production”; maximum and spare flux rates were also determined using standard established flux analysis protocols. […] FIG. 1D schematically summarizes this pathway.
(§2) For these measurements, oligomycin, FCCP, and rotenone/antimycin were used to determine mitochondrial respiration leak rates, the maximum oxygen consumption rate, and the non-mitochondrial oxygen consumption rate. […] The dose-response was logarithmic over a test range of 0.1 to 2 mM (FIG. 4). FIG. 3A illustrates respiration peaking at ˜40% enhancement, which is the maximum possible when mitochondria are chemically uncoupled.

SH-SY5Y cells [2] = experiment: Glycolysis flux (ECAR), Seahorse Extracellular Flux analyzer; type: cell-based, human
Method: as §1, §2

[3] = mice, cited from earlier work
[4] = in solution, especially in the presence of amino acids; cited from earlier work
[5] = cited from earlier work

What does the source list for `CC(CC(=O)O)OC(=O)CC(=O)C(=O)OC(C)CC(=O)O` (centres unmarked) [OAA(BHB)2, 3,3′-((2-oxosuccinyl)bis(oxy))dibutyric acid]?
Increase in cell respiration (SH-SY5Y cells [1]; 1-mM dose, SH-SY5Y, FIG. 2, averages of three experiments): ~30%; Effect on respiration (OCR), in words (SH-SY5Y cells [1]): increases respiration; Increase of cellular respiration and/or glycolysis, near maximum possible levels (SH-SY5Y cells [1]): ~40%

With `CC(O)COC(=O)CC(=O)C(=O)OCC(C)O` (centres unmarked) [OAA(PG)2, Bis(2-hydroxypropyl) 2-oxosuccinate] as the compound, how does the “Effect on glycolysis (ECAR)” value (SH-SY5Y cells [2]; 1, 2 and 5 mM OAA(PG)2, SH-SY5Y, FIG. 3B) read?
The value was “without concomitantly creating a statistical reduction in the glycolysis flux; also recorded: insignificant effect on glycolysis”.

And the “ATP-linked Respiration” value (SH-SY5Y cells [1]; 0.1 mM, SH-SY5Y)?
Its value is 50.1%.

What about the “Change in OCR post injection (1)” value (SH-SY5Y cells [1]; 0.1 mM, SH-SY5Y) of the same compound?
The value was 101.7%.

What about the “Maximum OCR” value (SH-SY5Y cells [1]; 0.1 mM, SH-SY5Y) of the same compound?
The value was 98.92%.

What about the “Post-Oligomycin (Leak Rate) OCR” value (SH-SY5Y cells [1]; 0.1 mM, SH-SY5Y) of the same compound?
Its value is 51.58%.

What about the “ATP-linked Respiration” value (SH-SY5Y cells [1]; 0.25 mM, SH-SY5Y) of the same compound?
The value was 50.66%.

What about the “Change in OCR post injection (1)” value (SH-SY5Y cells [1]; 0.25 mM, SH-SY5Y) of the same compound?
Its value is 101.1%.

And the “Maximum OCR” value (SH-SY5Y cells [1]; 0.25 mM, SH-SY5Y)?
The value was 93.08%.

And the “Post-Oligomycin (Leak Rate) OCR” value (SH-SY5Y cells [1]; 0.25 mM, SH-SY5Y)?
Its value is 50.46%.

And the “ATP-linked Respiration” value (SH-SY5Y cells [1]; 0.5 mM, SH-SY5Y)?
The value was 44.78%.

What about the “Change in OCR post injection (1)” value (SH-SY5Y cells [1]; 0.5 mM, SH-SY5Y) of the same compound?
Its value is 103.9%.

And the “Maximum OCR” value (SH-SY5Y cells [1]; 0.5 mM, SH-SY5Y)?
Its value is 93.62%.

What about the “Post-Oligomycin (Leak Rate) OCR” value (SH-SY5Y cells [1]; 0.5 mM, SH-SY5Y) of the same compound?
Its value is 59.15%.

And the “ATP-linked Respiration” value (SH-SY5Y cells [1]; 1 mM, SH-SY5Y)?
Its value is 52.7%.

And the “Change in OCR post injection (1)” value (SH-SY5Y cells [1]; 1 mM, SH-SY5Y)?
The value was 106.5%.

And the “Maximum OCR” value (SH-SY5Y cells [1]; 1 mM, SH-SY5Y)?
The value was 81.46%.

What about the “Post-Oligomycin (Leak Rate) OCR” value (SH-SY5Y cells [1]; 1 mM, SH-SY5Y) of the same compound?
The value was 53.8%.

What about the “ATP-linked Respiration” value (SH-SY5Y cells [1]; 2 mM, SH-SY5Y) of the same compound?
Its value is 68.89%.

And the “Change in OCR post injection (1)” value (SH-SY5Y cells [1]; 2 mM, SH-SY5Y)?
Its value is 119.8%.

And the “Maximum OCR” value (SH-SY5Y cells [1]; 2 mM, SH-SY5Y)?
Its value is 91.73%.

What about the “Post-Oligomycin (Leak Rate) OCR” value (SH-SY5Y cells [1]; 2 mM, SH-SY5Y) of the same compound?
The value was 50.86%.

And the “Effect on respiration (OCR), in words” value (SH-SY5Y cells [1])?
Its value is “enhance respiration”.

What about the “Peak enhancement of respiration” value (SH-SY5Y cells [1]; SH-SY5Y, FIG. 3A, maximum possible when mitochondria are chemically uncoupled) of the same compound?
The value was about 40%.

And the “Increase of cellular respiration and/or glycolysis, near maximum possible levels” value (SH-SY5Y cells [1])?
Its value is about 40%.

And the “Shape of dose-response of respiration” value (SH-SY5Y cells [1]; test range of 0.1 to 2 mM, FIG. 4)?
The value was “logarithmic”.

For `O=C(O)CC(=O)C(=O)O` [OAA, 2-oxosuccinic acid], which Brain changes ([3]; 1 g/kg/day and 2 g/kg/day) is on record?
Its Brain changes is “induced unequivocal brain changes”.

And the “Activity of NFκB transcription factor (neuroinflammation)” value ([3]; intraperitoneal (IP) injection)?
Its value is “lessened activity”.

And the Hippocampal neurogenesis ([3]; intraperitoneal (IP) injection)?
Its Hippocampal neurogenesis is “increased hippocampal neurogenesis”.

What about the “Insulin pathway signaling in brain” value ([3]; intraperitoneal (IP) injection) of the same compound?
Its value is “enhanced insulin pathway signaling”.

What about the “Mitochondrial biogenesis parameters in brain” value ([3]; intraperitoneal (IP) injection) of the same compound?
Its value is “promoted mitochondrial biogenesis parameters”.

And the “Increase in glycolysis flux capacity” value (SH-SY5Y cells [2]; 2 mM OAA, SH-SY5Y, FIG. 1B)?
The value was “about 50%”.

What about the “Effect on glycolysis flux” value (SH-SY5Y cells [2]; 2 mM, SH-SY5Y, FIG. 1B) of the same compound?
The value was “enhances rather than impedes glycolysis flux”.

And the “Increase in cellular respiration” value (SH-SY5Y cells [1]; OAA treatment, SH-SY5Y, FIG. 1C)?
Its value is “about 50%”.

And the “Effect on respiration (OCR), in words” value (SH-SY5Y cells [1])?
Its value is “increase aspects of mitochondrial respiration flux”.

What about the “Decarboxylation rate into pyruvate” value [4] of the same compound?
The value was about 1 %/min.

What about the Safety profile ([5]; AD clinical study, doses up to 1 gram BID) of the same compound?
Its Safety profile is “excellent safety profile”.

What about the Plasma level increase ([5]; PK study, 100 mg BID, AD participants) of the same compound?
Its Plasma level increase is “did not reveal a reliable plasma level increase”.

Which “Effect on respiration, in words” value (SH-SY5Y cells [1]; experiments not further specified) does the source give for `CC(O)C(=O)O` (centres unmarked) [lactate, reference compound] here?
Its value is “effectively promote respiration”.
